Test results published in PMC8424644, “Thermodynamic Stability and Speciation of Ga(III) and Zr(IV) Complexes with High-Denticity Hydroxamate Chelators” (Inorganic Chemistry, 2021).
Read-outs that look alike come from different tables or passages of the source. Blank lines part the entries; values can stand above or below the compound they belong to.

What was measured:
[1] = set-up: method as in ref 24 (DFOB), 2 (THPN), 25,58 (3,4,3-LI-HOPO), 25,59 (DTPA); conditions: (re)calculated from constants of original publications, pH 7.4, cL = 10 μM, cZr(IV) = 1 μM; ref 24 (DFOB), 2 (THPN), 25,58 (3,4,3-LI-HOPO), 25,59 (DTPA); cited from earlier work
[2] = set-up: method as in PMID 31940188; conditions: calculations by Holland; cited from earlier work
[3] = Fe(III)-L + Zr(IV)-NTA metal–metal competition UV–vis titrations; type: physicochemical; conditions: Fe(III)-DFOB + Zr(IV)-NTA competition
[4] = set-up: method as in ref 43 (DFOB), 38 (DFOE), 11 (DOTA), 54 (NOTA), 55 (H2hox), 56 (PrP9), 57 (HBED); conditions: (re)calculated from constants of original publications, pH 7.4, cL = 10 μM, cGa(III) = 1 μM; ref 43 (DFOB), 38 (DFOE), 11 (DOTA), 54 (NOTA), 55 (H2hox), 56 (PrP9), 57 (HBED); cited from earlier work
[5] = set-up: method as in PMID 11666621; conditions: acidic range; cited from earlier work
[6] = cited from earlier work
[7] = acidic range; cited from earlier work
[8] = cited from earlier work; for pKa attributed to the deprotonation of a water molecule in the Zr(IV) complex: ref 24 (DFOB), 27 (EDTA)
[9] = pZr calculation (ligand sequestering ability); type: physicochemical; conditions: pZr = −log[Zr(IV)free], pH 7.4, cL = 10 μM, cZr(IV) = 1 μM
Source text: (§1) Despite a large variety of PET chelators synthesized and tested in order to provide strong coordination of Ga(III) and Zr(IV) in vivo, until now it is has been hard to avoid the release of these metal ions in the body. Here we report two new Ga(III) and Zr(IV) hydroxamate chelators, designed to achieve an efficient sequestering of these metal ions but also to understand how the cyclization and the introduction of an additional hydroxamate group influences the stability of Zr(IV) complexes. Therefore, it is important to evaluate and compare the Ga(III)- and Zr(IV)-sequestering abilities of H3L1 and H4L2 with those of other chelators. However, the direct comparison of the stability constants of metal complexes is not straightforward, and other tools taking into account all the physicochemical properties of the ligands, i.e. their denticity, coordination modes, and acid–base properties, should be used.[52] In order to reliably compare the chelating abilities of H3L1 and H4L2 toward Ga(III) and Zr(IV) ions, the pM values were calculated. pFe was originally introduced by Raymond for the comparison of iron-siderophore systems;[53] pGa = −log[Ga(III)free] and pZr = −log[Zr(IV)free] were calculated at pH 7.4 with cL = 10 μM and cGa(III)/Zr(IV) = 1 μM (Table 2).

[10] = pGa calculation (ligand sequestering ability); type: physicochemical; conditions: pGa = −log[Ga(III)free], pH 7.4, cL = 10 μM, cGa(III) = 1 μM
Source text: as §1

[11] = pFe calculation (ligand sequestering ability); type: physicochemical; conditions: pH=7.4, cL=10 μM, metal 1 μM
Source text: Despite a large variety of PET chelators synthesized and tested in order to provide strong coordination of Ga(III) and Zr(IV) in vivo, until now it is has been hard to avoid the release of these metal ions in the body. Here we report two new Ga(III) and Zr(IV) hydroxamate chelators, designed to achieve an efficient sequestering of these metal ions but also to understand how the cyclization and the introduction of an additional hydroxamate group influences the stability of Zr(IV) complexes. Therefore, it is important to evaluate and compare the Ga(III)- and Zr(IV)-sequestering abilities of […] and […] with those of other chelators. […] page 15: 100 100 [ZrL4]+ [ZrL3]+ [ZrL4H ] -1 80 [ZrL3H ] 80 2+ -1 [ZrHL4] […] Experimental section. Ligands' sequestering ability Table S3. pFe values with various synthetic and biological chelators a Ligand pFe Chelating groups and ligands geometry […] 24.3 3 hydroxamate groups in a cyclic arrangement […] 23.3 4 hydroxamate groups in a linear arrangement […] 26.9 3 hydroxamate groups in a cyclic arrangement […] 23.61 3 hydroxamate groups in a linear arrangement […] DFOE 27.73 3 hydroxamate groups in a cyclic arrangement […] protonation and stability constants given in original publications; the hydrolysis constants of Fe(III) ions were taken from the literature14 and are given in the experimental section 15 (also on this page, place not known: […]

[12] = taken from the literature, cited from earlier work
[13] = taken from the literature, ref 38 (H3L3), 35 (H3L4), 36,38 (DFOE)

Compound: O=C(NCCCN(CCCCN(CCCNC(=O)c1cccc(=O)n1O)C(=O)c1cccc(=O)n1O)C(=O)c1cccc(=O)n1O)c1cccc(=O)n1O [3,4,3-LI-HOPO]
- pZr [1]: 44.0[25],[58]

Compound: O=C1CCN(O)C(=O)CCCNC(=O)CCN(O)C(=O)CCCNC(=O)CCN(O)C(=O)CCCNC(=O)CCN(O)C(=O)CCCN1 [CTH36]
- log β [Zr(L)] predicted from computational calculations [2]: 52.84

Compound: CC(=O)N(O)CCCCCNC(=O)CCC(=O)N(O)CCCCCNC(=O)CCC(=O)N(O)CCCCCNC(=O)CCC(=O)N(O)CCCCCN [DFO*]
- log β [Zr(L)] predicted from computational calculations [2]: 51.56

Compound: CC(=O)N(O)CCCCCNC(=O)CCC(=O)N(O)CCCCCNC(=O)CCC(=O)N(O)CCCCCN [DFOB]
- log β [ZrHDFOB] ([3]; spectra collected after 1h incubation): 45.9
- log β [ZrHDFOB] ([3]; spectra collected after 24h incubation): 46.1(2)
- pGa [4]: 21.6[43]
- pZr [1]: 32.2[24]
- log β [Zr(L)] predicted from computational calculations [2]: 41.20
- pKa of the Th(IV) complex [5]: 1.9
- log Kamine (protonation constant of the amino group) [6]: 10.97
- pKa1 (protonation constant of the Ga(III) complex) [7]: 0.78
- pKa2 (protonation constant of the Ga(III) complex) [7]: 1.10
- log β [ZrH(DFOB)OH] [8]: 40.04
- log β [ZrHDFOB] ([8]; different ionic strength): 47.7
- pKa attributed to the deprotonation of a water molecule in the Zr(IV) complex [8]: 6.36

- pZr [9]: 31.0
Compound: O=C1CCC(=O)N(O)CCCCCNC(=O)CCC(=O)N(O)CCCCCNC(=O)CCC(=O)N(O)CCCCCN1 [DFOE, desferrioxamine E, reference compound]
- pGa [4]: 25.2[38]
- log K LH2 (ligand protonation; log K2) [6, 13]: 9.42
- log K LH3 (ligand protonation; log K3) [6, 13]: 8.65
- log K LH (ligand protonation; log K1) [6, 13]: 9.89
- log β LH (ligand protonation) [6, 13]: 9.89

Compound: O=C(O)CN1CCN(CC(=O)O)CCN(CC(=O)O)CCN(CC(=O)O)CC1 [DOTA, 1,4,7,10-tetraazacyclododecane-1,4,7,10-tetraacetic acid]
- pGa [4]: 20.5[11]

Compound: O=C(O)CN(CCN(CC(=O)O)CC(=O)O)CCN(CC(=O)O)CC(=O)O [DTPA]
- pZr [1]: 32.3[25],[59]

Compound: O=C(O)CN(CCN(CC(=O)O)CC(=O)O)CC(=O)O [EDTA, ethylenediaminetetraacetic acid]
- pKa attributed to the deprotonation of a water molecule in the Zr(IV) complex [8]: 6.2

Compound: Oc1cccc2ccc(CNCCNCc3ccc4cccc(O)c4n3)nc12 [H2hox]
- pGa [4]: 28.4[55]

- pGa [10]: 25.4
- pZr [9]: 31.5
- pFe [11]: 26.9
Compound: O=C1CCCCCN(O)C(=O)CCNC(=O)CCCCCN(O)C(=O)CCNC(=O)CCCCCN(O)C(=O)CCN1 [H3L3]
- log K LH (ligand protonation; log K1) [6, 13]: 9.89
- log β LH (ligand protonation) [6, 13]: 9.89

- pGa [10]: 21.9
- pZr [9]: 32.6
Compound: CN(O)C(=O)CCC(=O)NCCOCC(C)(COCCNC(=O)CCC(=O)N(C)O)COCCNC(=O)CCC(=O)N(C)O [H3L4]
- log K LH2 (ligand protonation; log K2) [6, 13]: 8.97
- log K LH3 (ligand protonation; log K3) [6, 13]: 8.26
- log K LH (ligand protonation; log K1) [6, 13]: 9.50
- log β LH2 (ligand protonation) [6, 13]: 18.47
- log β LH3 (ligand protonation) [6, 13]: 26.73
- log β LH (ligand protonation) [6, 13]: 9.50
- log β [FeHL] [12]: 29.82
- log β [FeL] ([12]; ref 38 (H3L3), 35 (H3L4), 36,38 (DFOE)): 27.34

Compound: O=C(O)CN(CCN(CC(=O)O)Cc1ccccc1O)Cc1ccccc1O [HBED]
- pGa [4]: 28.0[57]

Compound: O=C(O)CN1CCN(CC(=O)O)CCN(CC(=O)O)CC1 [NOTA]
- pGa [4]: 27.4[54]

Compound: O=C(O)CCP(=O)(O)CN1CCN(CP(=O)(O)CCC(=O)O)CCN(CP(=O)(O)CCC(=O)O)CC1 [PrP9]
- pGa [4]: 23.1[56]
